Reference: patent publication US4563453A, “Thiazine derivatives, processes for preparation thereof and pharmaceutical composition comprising the same” (Fujisawa Pharmaceutical Co., Ltd., priority 1983, dated 1986)

Columns and labels:
Arthus foot edema = Arthus foot edema (paw edema in rats); format: in vivo, Male Sprague-Dawley rats; settings: rat, oral, 100 mg/kg, 60 minutes before phlogogen; edema volume 3 hours after egg albumin i.v./anti egg albumin antiserum subplantar
Procedure: TEST B (Arthus foot edema)
Five male Sprague-Dawley rats weighing about 200 g were used per group.
Paw edema was induced by intravenous injection of egg albumin (0.5 mg/rat) and subplantar injection of anti egg albumin antiserum (0.1 ml/rat) in Arthus type foot edema. The test drug was suspended in methylcellulose and administered orally 60 minutes before phlogogen. Paw volume was measured with plethysmometer (Ugo Basil Co., Ltd.) by water displacement immersing the paw to the lateral malleolus. The difference of paw volume before and 3 hours after the phlogogen was designated as edema volume. The data were analyzed statistically by student's t-test.

Carrageenin foot edema = Carrageenin foot edema (paw edema in rats); format: in vivo, Male Sprague-Dawley rats; settings: rat, oral, 10.0 mg/kg, 60 minutes before phlogogen; edema volume 3 hours after 1% carrageenin
Procedure: TEST A (Carrageenin foot edema)
Male Sprague-Dawley rats weighing about 200 g were used in groups of five. Paw edema was induced by subplantar injection of 1% carrageenin (0.1 ml/rat) into the right hind paw. The test drug was suspended in 0.5% methylcellulose and administered orally 60 minutes before phlogogen. Paw volume was measured with plethysmometer (Ugo Basil Co., Ltd.) by water displacement immersing the paw to the lateral malleolus. The difference of paw volume before and 3 hours after the phlogogen was designated as edema volume. The data was analyzed statistically by student's t-test.

Row | Structure (SMILES) | Inhibition (%) (Arthus foot edema) | Inhibition (%) (Carrageenin foot edema)
1 | CN1C(C(=O)Nc2ccc(O)c(=O)cc2)=C(O)c2sccc2S1(=O)=O [4-Hydroxy-2-methyl-N-(2-hydroxy-1-oxo-2,4,6-cycloheptatrien-5-yl)-2H-thieno[2,3-e]-1,2-thiazine-3-carboxamide 1,1-dioxide] | 37.8% | –
2 | CN1C(C(=O)Nc2cccccc2=O)=C(O)c2sccc2S1(=O)=O [(a), 4-Hydroxy-2-methyl-N-(1-oxo-2,4,6-cycloheptatrien-2-yl)-2H-thieno[2,3-e]-1,2-thiazine-3-carboxamide 1,1-dioxide] | – | 63.6%
3 | CN1C(C(=O)Nc2cccccc2=O)=C(O)c2sc3ccccc3c2S1(=O)=O [(b), 4-Hydroxy-2-methyl-N-(1-oxo-2,4,6-cycloheptatrien-2-yl)-2H-[1]benzothieno[2,3-e]-1,2-thiazine-3-carboxamide 1,1-dioxide] | – | 34%
